These results are taken from patent publication US9345723B2, “Rapid formation of chitosan sponges using guanosine 5′-diphosphate: injectable scaffolds for tissue regeneration and drug delivery” (THE ROYAL INSTITUTION FOR THE ADVANCEMENT OF …, priority 2012, dated 2016).

For data set [1], the system named is 3T3 fibroblasts. The following applies: concentrations higher than 5 mM; recent study (Pati et al., 2012); cited from earlier work.
Data set [2] relates to 3T3 fibroblasts. Briefly: Cytotoxicity of GDP and TPP, MTT assay. The following applies: concentrations higher than 5 mM, 24 hours of culture. In kind it is cell-based. The procedure: FIG. 3 illustrates the comparison of the cytotoxicity of GDP and TPP at different concentrations; FIG. 3A: light microscopy images of 3T3 fibroblasts with different concentrations of GDP and TPP added to the culture media after 24 hours; FIG. 3B: Quantitative analysis, using MTT assay, of the cytotoxicity of TPP and GDP to 3T3 fibroblasts at different concentrations after 24 hours.
Crosslinking of chitosan using GDP occurs due to the electrostatic attractions between the anionic phosphate groups of GDP and the cationic amine groups of chitosan. Another anionic crosslinker used in the art is tripolyphosphate (TPP), which has been widely used to fabricate chitosan nanoparticles, microparticles and fibers (Pati et al., 2011, Carbohyd Res, 346: 2582). The cytotoxicity of GDP was compared to tripolyphosphate (TPP) at concentrations from 0.05 mM to 50 mM using 3T3 fibroblasts.

With `O=P(O)(O)OP(=O)(O)OP(=O)(O)O` [TPP, tripolyphosphate], the cytotoxicity entry in the data set with 3T3 fibroblasts [1] is listed as “cytotoxicity of TPP at concentrations higher than 5 mM”.

`Nc1nc2c(ncn2[C@@H]2O[C@H](COP(=O)(O)OP(=O)(O)O)[C@@H](O)[C@H]2O)c(=O)[nH]1` [GDP, Guanosine 5′-Diphosphate]: the “cytotoxicity compared to TPP” value in the data set with 3T3 fibroblasts [2] is given as “significantly less cytotoxic”.
